Values belong to the compound of their own block, whether it stands above or below them.
Tests used:
[1] = biological target: T1, Mitogen-activated protein kinase 1 (Homo sapiens, UniProt P28482)
Description: Inhibition of human recombinant N-terminal 6-His-tagged ERK2 expressed in Escherichia coli using S/T17 as substrate after 30 mins by spectrophotometry

[2] = biological target: T1, Mitogen-activated protein kinase 1; remark: listed apart in the source
Description: Inhibition of ERK2 in human HepG2 cells assessed as P90RSK phosphorylation at Ser380 after 1.5 hrs by fluorescence assay

[3] = Plasma protein binding in human; assay type: ADME, cell-free; details: read-out: PPB (converted)
[4] = biological target: Cyclin-dependent kinase 2 (Homo sapiens, UniProt P24941)
Description: Inhibition of Cdk2 (unknown origin)

[5] = Tmax in cynomolgus monkey at 3 mg/kg, po; assay type: ADME, organism-based, Macaca fascicularis; set-up: dose 3 mg/kg, route oral; details: in vivo
[6] = Half life in cynomolgus monkey at 3 mg/kg, po; assay type: ADME, organism-based, Macaca fascicularis; set-up: dose 3 mg/kg, route oral; details: in vivo
[7] = AUC (0 to infinity) in cynomolgus monkey at 3 mg/kg, po; assay type: ADME, organism-based, Macaca fascicularis; set-up: dose 3 mg/kg, route oral, time infinity; details: plasma
[8] = Clearance in cynomolgus monkey at 1 mg/kg, iv; assay type: ADME, organism-based, Macaca fascicularis; set-up: dose 1 mg/kg, route intravenous; details: in vivo
[9] = Oral bioavailability in cynomolgus monkey at 3 mg/kg; assay type: ADME, organism-based, Macaca fascicularis; details: in vivo
[10] = Antiproliferative activity against human HCT116 cells expressing K-Ras […] mutant after 72 hrs by Cell-Titre Blue assay; assay type: functional, cell-based; details: HCT-116, 72 h
A-375 = test: Antiproliferative activity against human A375 cells expressing B-Raf V600E mutant after 72 hrs by Cell-Titre Blue assay; assay type: functional, cell-based; details: A-375, 72 h
Mus musculus [11] = test: In vivo inhibition of ERK2 in nude mouse xenografted with human HCT116 cells assessed as pRSK knockdown at 75 mg/kg, po qd after 1 hr relative to vehicle-treated control; assay type: functional; details: HCT-116, 1 h
Mus musculus [12] = test: In vivo inhibition of ERK2 in nude mouse xenografted with human HCT116 cells assessed as pRSK knockdown at 75 mg/kg, po qd after 8 hrs relative to vehicle-treated control; assay type: functional; details: HCT-116, 8 h
Mus musculus [13] = test: In vivo inhibition of ERK2 in nude mouse xenografted with human HCT116 cells assessed as pRSK knockdown at 150 mg/kg, po qd after 8 hrs relative to vehicle-treated control; assay type: functional; details: HCT-116, 8 h
Mus musculus [14] = test: Toxicity in nude mouse xenografted with human HCT116 cells assessed as body weight loss at 150 mg/kg, po bid relative to vehicle-treated control; assay type: organism-based, HCT-116; set-up: dose 150 mg/kg, route oral; details: in vivo
[15] = Toxicity in po dosed nude mouse xenografted with human HCT116 cells administered bid; assay type: organism-based, HCT-116; details: in vivo
[16] = Clearance in CD-1 mouse at 0.5 mg/kg, iv; assay type: ADME, organism-based; set-up: dose 0.5 mg/kg, route intravenous; details: in vivo
[17] = Oral bioavailability in CD-1 mouse at 2 mg/kg; assay type: ADME, organism-based; details: in vivo
[18] = Cmax in NCR nude mouse at 30 mg/kg, po; assay type: ADME, organism-based; set-up: dose 30 mg/kg, route oral; details: in vivo
[19] = Tmax in NCR nude mouse at 30 mg/kg, po; assay type: ADME, organism-based; set-up: dose 30 mg/kg, route oral; details: in vivo
[20] = Half life in NCR nude mouse at 30 mg/kg, po; assay type: ADME, organism-based; set-up: dose 30 mg/kg, route oral; details: in vivo
[21] = AUC (0 to infinity) in NCR nude mouse at 30 mg/kg, po; assay type: ADME, organism-based; set-up: time infinity, dose 30 mg/kg, route oral; details: plasma
[22] = Clearance in NCR nude mouse at 1 mg/kg, iv; assay type: ADME, organism-based; set-up: dose 1 mg/kg, route intravenous; details: in vivo
[23] = Oral bioavailability in NCR nude mouse at 30 mg/kg; assay type: ADME, organism-based; details: in vivo
[24] = Cmax in NCR nude mouse at 100 mg/kg, po; assay type: ADME, organism-based; set-up: dose 100 mg/kg, route oral; details: in vivo
[25] = Tmax in NCR nude mouse at 100 mg/kg, po; assay type: ADME, organism-based; set-up: dose 100 mg/kg, route oral; details: in vivo
[26] = Half life in NCR nude mouse at 100 mg/kg, po; assay type: ADME, organism-based; set-up: dose 100 mg/kg, route oral; details: in vivo
[27] = AUC (0 to infinity) in NCR nude mouse at 100 mg/kg, po; assay type: ADME, organism-based; set-up: time infinity, dose 100 mg/kg, route oral; details: plasma
[28] = Oral bioavailability in NCR nude mouse at 100 mg/kg; assay type: ADME, organism-based; details: in vivo
[29] = Cmax in NCR nude mouse at 150 mg/kg, po; assay type: ADME, organism-based; set-up: dose 150 mg/kg, route oral; details: in vivo
[30] = Tmax in NCR nude mouse at 150 mg/kg, po; assay type: ADME, organism-based; set-up: dose 150 mg/kg, route oral; details: in vivo
[31] = Half life in NCR nude mouse at 150 mg/kg, po; assay type: ADME, organism-based; set-up: dose 150 mg/kg, route oral; details: in vivo
[32] = AUC (0 to infinity) in NCR nude mouse at 150 mg/kg, po; assay type: ADME, organism-based; set-up: time infinity, dose 150 mg/kg, route oral; details: plasma
[33] = Oral bioavailability in NCR nude mouse at 150 mg/kg; assay type: ADME, organism-based; details: in vivo
[34] = Cmax in Sprague-Dawley rat at 5 mg/kg, po; assay type: ADME, organism-based; set-up: dose 5 mg/kg, route oral; details: in vivo
[35] = Tmax in Sprague-Dawley rat at 5 mg/kg, po; assay type: ADME, organism-based; set-up: dose 5 mg/kg, route oral; details: in vivo
[36] = Half life in Sprague-Dawley rat at 5 mg/kg, po; assay type: ADME, organism-based; set-up: dose 5 mg/kg, route oral; details: in vivo
[37] = AUC (0 to infinity) in Sprague-Dawley rat at 5 mg/kg, po; assay type: ADME, organism-based; set-up: time infinity, dose 5 mg/kg, route oral; details: plasma
[38] = Clearance in Sprague-Dawley rat at 1 mg/kg, iv; assay type: ADME, organism-based; set-up: dose 1 mg/kg, route intravenous; details: in vivo
[39] = Oral bioavailability in Sprague-Dawley rat at 5 mg/kg; assay type: ADME, organism-based; details: in vivo
[40] = Cmax in beagle dog at 2 mg/kg, po; assay type: ADME, organism-based, Canis lupus familiaris; set-up: dose 2 mg/kg, route oral; details: in vivo
[41] = Tmax in beagle dog at 2 mg/kg, po; assay type: ADME, organism-based, Canis lupus familiaris; set-up: dose 2 mg/kg, route oral; details: in vivo
[42] = Half life in beagle dog at 2 mg/kg, po; assay type: ADME, organism-based, Canis lupus familiaris; set-up: dose 2 mg/kg, route oral; details: in vivo
[43] = AUC (0 to infinity) in beagle dog at 2 mg/kg, po; assay type: ADME, organism-based, Canis lupus familiaris; set-up: dose 2 mg/kg, route oral, time infinity; details: plasma
[44] = Clearance in beagle dog at 1 mg/kg, iv; assay type: ADME, organism-based, Canis lupus familiaris; set-up: dose 1 mg/kg, route intravenous; details: in vivo
[45] = Oral bioavailability in beagle dog at 2 mg/kg; assay type: ADME, organism-based, Canis lupus familiaris; details: in vivo
[46] = Cmax in cynomolgus monkey at 3 mg/kg, po; assay type: ADME, organism-based, Macaca fascicularis; set-up: dose 3 mg/kg, route oral; details: in vivo

T1 sequence (P28482 whole entry): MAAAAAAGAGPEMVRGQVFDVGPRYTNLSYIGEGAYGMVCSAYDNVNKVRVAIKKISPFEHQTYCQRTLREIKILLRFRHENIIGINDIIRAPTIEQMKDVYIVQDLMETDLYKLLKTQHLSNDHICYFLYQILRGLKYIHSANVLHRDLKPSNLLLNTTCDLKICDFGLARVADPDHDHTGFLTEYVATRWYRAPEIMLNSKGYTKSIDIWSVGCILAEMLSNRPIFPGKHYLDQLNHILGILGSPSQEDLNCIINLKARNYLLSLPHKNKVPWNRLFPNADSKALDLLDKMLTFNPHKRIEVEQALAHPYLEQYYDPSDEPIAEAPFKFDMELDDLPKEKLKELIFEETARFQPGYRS

- IC50 [1]: 0.041 µM
- IC50 [2]: 3.01 µM
Compound: CC(C)(C)Nc1ncc2c(n1)CN(C(=O)N[C@H](CO)c1ccc(F)c(Cl)c1)CC2

- IC50 [1]: 0.002 µM
- IC50 [2]: 0.198 µM
Compound: O=C(N[C@H](CO)c1ccc(F)c(Cl)c1)N1CCc2cnc(N[C@H]3CC[C@H](O)C3)nc2C1

- fraction unbound [3]: 0.006
- IC50 [1]: 0.001 µM
- IC50 [2]: 0.023 µM
- IC50 [4]: 0.009 µM
Compound: Cc1cc(Nc2ncc3c(n2)CN(C(=O)N[C@H](C)c2ccc(Cl)c(Cl)c2)CC3)ccn1

- IC50 [1]: 0.106 µM
- IC50 [2]: 4.4 µM
Compound: COc1ccc(CNC(=O)N2CCc3cnc(NC(C)C)nc3C2)cc1

- IC50 [1]: 0.003 µM
- IC50 [2]: 0.348 µM
Compound: O=C(N[C@H](CO)c1ccc(F)c(Cl)c1)N1CCc2cnc(Nc3ccc(F)cc3)nc2C1

- IC50 [2]: 13.2 µM
Compound: Cc1noc(C)c1Nc1ncc2c(n1)CN(C(=O)N[C@H](CO)c1ccc(F)c(Cl)c1)CC2

- IC50 [1]: 0.283 µM
- IC50 [2]: 4.38 µM
Compound: CC(C)Nc1ncc2c(n1)CN(C(=O)NCc1ccccc1)CC2

- IC50 [1]: 0.069 µM
- IC50 [2]: 6.62 µM
Compound: CC(C)Nc1ncc2c(n1)CN(C(=O)NCc1ccc(F)cc1)CC2

- IC50 [1]: 0.091 µM
- IC50 [2]: 2.14 µM
Compound: CC(C)Nc1ncc2c(n1)CN(C(=O)NCc1ccc(Cl)cc1)CC2

- IC50 [1]: 0.093 µM
- IC50 [2]: 2.61 µM
Compound: CC(C)Nc1ncc2c(n1)CN(C(=O)NCc1cccc(F)c1)CC2

- IC50 [1]: 0.093 µM
- IC50 [2]: 7.44 µM
Compound: CC(=O)Nc1ncc2c(n1)CN(C(=O)N[C@H](CO)c1ccc(F)c(Cl)c1)CC2

- IC50 [1]: 0.006 µM
- IC50 [2]: 0.247 µM
Compound: Cn1cc(Nc2ncc3c(n2)CN(C(=O)N[C@H](CO)c2ccc(F)c(Cl)c2)CC3)cn1

- IC50 [1]: 0.007 µM
- IC50 [2]: 0.445 µM
Compound: Cc1cc(Nc2ncc3c(n2)CN(C(=O)N[C@H](CO)c2ccc(F)c(Cl)c2)CC3)ccn1

Compound: O=C(N[C@H](CO)c1ccc(Cl)c(F)c1)N1CCc2cnc(NC3CCOCC3)nc2C1
- Tmax [5]: 79.8 min
- half-life [6]: 312 min
- AUC(0-inf) [7]: 650 nM·h
- clearance [8]: 1.98 L/h/kg
- bioavailability [9]: 19%
- EC50 [10]: 0.74 µM
- EC50 (A-375): 0.39 µM
- inhibition in vivo at 75 mg/kg (Mus musculus [11]): 75%
- inhibition in vivo at 75 mg/kg (Mus musculus [12]): 20%
- inhibition in vivo at 150 mg/kg (Mus musculus [13]): 55%
- Activity (Mus musculus [14]): Non-toxic
- MTD [15]: 50 mg/kg
- clearance [16]: 1.98 L/h/kg
- bioavailability [17]: 29%
- Cmax [18]: 3.12 µM
- Tmax [19]: 30 min
- half-life [20]: 144 min
- AUC(0-inf) [21]: 4810 nM·h
- clearance [22]: 8.04 L/h/kg
- bioavailability [23]: 58%
- Cmax [24]: 9.82 µM
- Tmax [25]: 15 min
- half-life [26]: 450 min
- AUC(0-inf) [27]: 30000 nM·h
- bioavailability [28]: 73%
- Cmax [29]: 13.9 µM
- Tmax [30]: 15 min
- half-life [31]: 162 min
- AUC(0-inf) [32]: 26700 nM·h
- bioavailability [33]: 64%
- Cmax [34]: 0.09 µM
- Tmax [35]: 19.8 min
- half-life [36]: 102 min
- AUC(0-inf) [37]: 200 nM·h
- clearance [38]: 6.24 L/h/kg
- bioavailability [39]: 11%
- Cmax [40]: 0.59 µM
- Tmax [41]: 25.2 min
- half-life [42]: 36 min
- AUC(0-inf) [43]: 610 nM·h
- clearance [44]: 1.92 L/h/kg
- bioavailability [45]: 26%
- Cmax [46]: 0.16 µM

- IC50 [1]: 0.089 µM
- IC50 [2]: 1.86 µM
Compound: CC(C)Nc1ncc2c(n1)CN(C(=O)NCc1cccc(Cl)c1)CC2

- fraction unbound [3]: 0.103
- IC50 [1]: 0.001 µM
- IC50 [2]: 0.017 µM
- IC50 [4]: 0.011 µM
Compound: O=C(N[C@H](CO)c1ccc(Cl)c(Cl)c1)N1CCc2cnc(NC3CCOCC3)nc2C1

- IC50 [1]: 0.002 µM
- IC50 [2]: 0.021 µM
- IC50 [4]: 0.069 µM
Compound: C[C@@H](NC(=O)N1CCc2cnc(NC3CCOCC3)nc2C1)c1ccc2cc[nH]c2c1

- fraction unbound [3]: 0.095
- IC50 [1]: 0.001 µM
- IC50 [2]: 0.012 µM
- IC50 [4]: 0.013 µM
Compound: C[C@@H](NC(=O)N1CCc2cnc(NC3CCOCC3)nc2C1)c1ccc(Cl)c(F)c1

- IC50 [1]: 0.001 µM
- IC50 [2]: 0.004 µM
- IC50 [4]: 0.002 µM
Compound: CC[C@@H](NC(=O)N1CCc2cnc(NC3CCOCC3)nc2C1)c1ccc(C#N)c(Cl)c1

- IC50 [1]: 0.003 µM
- IC50 [2]: 0.473 µM
Compound: C[C@@H](CO)Nc1ncc2c(n1)CN(C(=O)N[C@H](CO)c1ccc(F)c(Cl)c1)CC2

- IC50 [1]: 0.01 µM
- IC50 [2]: 0.513 µM
Compound: CC(C)CNc1ncc2c(n1)CN(C(=O)N[C@H](CO)c1ccc(F)c(Cl)c1)CC2

- fraction unbound [3]: 0.018
- IC50 [1]: 0.001 µM
- IC50 [2]: 0.035 µM
- IC50 [4]: 0.004 µM
Compound: C[C@@H](NC(=O)N1CCc2cnc(Nc3cnn(C)c3)nc2C1)c1ccc(Cl)c(Cl)c1

- fraction unbound [3]: 0.01
- IC50 [1]: 0.001 µM
- IC50 [2]: 0.043 µM
- IC50 [4]: 0.023 µM
Compound: C[C@@H](NC(=O)N1CCc2cnc(Nc3ccnn3C)nc2C1)c1ccc(Cl)c(Cl)c1

— ChEMBL document CHEMBL3297705, “Discovery of 5,6,7,8-tetrahydropyrido[3,4-d]pyrimidine inhibitors of Erk2” (Bioorg Med Chem Lett, 2014)
